{"source": "patent US10071960B1", "about": "“Enaminone-grafted trithiocarbonate with anticancer and antimicrobial activity” (KING SAUD UNIVERSITY, priority 2017, dated 2018)", "key": {"[1]": {"test_system": "MDA-MB-231 Breast Cancer cells", "assay": "MTT antiproliferative assay, MDA-MB-231", "assay_type": "cell-based", "settings": "Homo sapiens, MDA-MB-231 cells, 48 hours", "method": "(§1) HepG2 (human hepatocarcinoma), LoVo (human colorectal adenocarcinoma) and MDA-MB-231 (human breast cancer) cancer cell lines were selected for the in vitro antiproliferative activity. Cells were seeded in 24-well plates at a density of 50,000 cells/well for 24 hours for adherent. After 24 hours, cells were treated with increasing concentrations of compound 3 or an equal volume of vehicle (DMSO) as a control and were incubated for 48 hours. 100 μL of MTT reagent (5 mg/ml) were added. The plates were incubated for 2 hours and absorbance was determined at 540 nm in an ELISA plate reader (Thermo, USA). Percentages of cell survival were calculated as follows: % cell survival=(absorbance of treated cells/absorbance of cells with vehicle solvent)×100. The 50% inhibitory concentration (IC50) was calculated from the dose-response curve obtained by plotting the percentage of cell survival versus the concentration of compound 3."}, "[2]": {"test_system": "HepG2 Liver cancer cells", "assay": "MTT antiproliferative assay, HepG2", "assay_type": "cell-based", "settings": "Homo sapiens, 48 hours", "method": "as §1"}, "[3]": {"test_system": "LoVo Colon cancer cells", "assay": "MTT antiproliferative assay, LoVo", "assay_type": "cell-based", "settings": "Homo sapiens, 48 hours", "method": "as §1"}, "[4]": {"test_system": "Brevibacillus laterosporus Wild strain", "assay": "In vitro antimicrobial activity (MIC, MBC)", "assay_type": "cell-based", "settings": "FIGS. 4 and 5", "method": "(§2) Biological activity of compound 3 as antimicrobial agents was performed according to (Lam et al. 2016). Lyophilized cultures of Streptococcus nutans ATCC 35668, Bacillus subtilis and Brevibacillus laterosporus Wild strains (Gram positive bacteria), Salmonella typhi Wild strain (Gram negative bacteria), Candid albicans ATCC 60193 (yeast), Cryptococcus neoformans Wild strain (yeast), Aspergillus fumigatus AUMC 8794 (mold), and Penicillium chrysogenum AUMC (mold) were grown aerobically on the appropriate medium and in incubating conditions before minimal inhibitory, minimal Bactericidal, and minimal fungicidal concentration testing (MIC, MBC, and MFC). […]\n(§3) The total count of microbes was counted by measurement of bacterial and yeast cells; and spores of mold using hemocytometer and account at 400×.\n(§4) The bacterial suspensions were prepared from bacterial cultures which gave an optical density reading of ˜0.9 at 620 nm. […]\n(§5) To determine MIC of the compound 3, a Mueller-Hinton broth and Potato dextrose broth were used for bacteria and fungi, respectively. […] After incubation, the microbial growth was detected in the wells by p-iodonitrotetrazolium violet (Sigma, USA) reagent. […] Data are expressed as mean±s.d. of the biological replicates and statistically analyzed using One-Way ANOVA analysis using Tukey test (P<0.05) (SPSS, 13.0)."}, "[5]": {"test_system": "Bacillus subtilis", "assay": "In vitro antimicrobial activity (MIC, MBC)", "assay_type": "cell-based", "settings": "FIGS. 4 and 5", "method": "as §2, §3, §4, §5"}, "[6]": {"test_system": "LoVo Colon cancer cells", "assay": "LDH release cytotoxicity assay, LoVo", "assay_type": "cell-based, human", "settings": "treated with IC50 for 48 hours; FIGS. 7 and 8A-8F", "method": "Lactate dehydrogenase (LDH) assay was performed to assess the LDH release into the media following compound 3 treatments (IC50) on HepG2, LoVo and MDA-MB-231 cells after 48 hours of incubation. LDH cytotoxicity assay was carried out using an in vitro toxicology assay kit (Sigma Aldrich Inc., USA), according to protocol in the user's manual. The amount of LDH released in culture media was measured at 490 nm using an ELISA plate reader (Thermo, USA)."}, "[7]": {"test_system": "Hepg2, LoVo, and MDA-MB-231 cell lines", "assay": "MTT growth inhibition, all three tested human tumor cells", "assay_type": "cell-based", "settings": "48 hours, read-out: IC50 concentrations, range over all three tested human tumor cells", "method": "as §1"}, "[8]": {"test_system": "Candida albicans ATCC 60193", "assay": "In vitro antimicrobial activity (MIC, MFC)", "assay_type": "cell-based", "settings": "C. albicans; FIGS. 4 and 5", "method": "as §2, §3, §4, §5"}, "[9]": {"test_system": "Cryptococcus neoformans Wild strain", "assay": "In vitro antimicrobial activity (MIC, MFC)", "assay_type": "cell-based", "settings": "Cr. neformans; FIGS. 4 and 5", "method": "as §2, §3, §4, §5"}}, "data": [{"smiles": "CCOC(=O)C(=CN(C)C)SC(=S)SC(=CN(C)C)C(=O)OCC", "note": "(stereo in doubt) [compound 3, (Z)-ethyl 3-(dimethylamino)-2-(((((Z)-1-(dimethylamino)-3-ethoxy-3-oxoprop-1-en-2-yl)thio)carbonothioyl)thio)acrylate]", "values": [{"measurement": "IC50", "setting": "[1]", "value": 45, "unit": "µg/mL"}, {"measurement": "IC50", "setting": "[2]", "value": 38, "unit": "µg/mL"}, {"measurement": "IC50", "setting": "[3]", "value": 37.5, "unit": "µg/mL"}, {"measurement": "MIC, MBC and MFC: susceptibility compared to other tested microorganisms", "setting": "[4]", "value": "resistant"}, {"measurement": "MIC, MBC and MFC: susceptibility compared to other tested microorganisms", "setting": "[5]", "value": "resistant"}, {"measurement": "cytotoxic effects (LDH release, morphology) compared between tumor cell lines", "setting": "[6]", "value": "more active"}, {"measurement": "IC50", "setting": "[7]", "value": "37.5 to 45", "unit": "µg/mL"}, {"measurement": "MIC, MBC and MFC: susceptibility compared to other tested microbes", "setting": "[8]", "value": "more susceptible"}, {"measurement": "MIC, MBC and MFC: susceptibility compared to other tested microbes", "setting": "[9]", "value": "more susceptible"}]}]}
